According to PubChem BioAssay AID2060504 (Molecular Pharmacology Branch, DTP, NCI, 2025):
Where “and” joins values, the source holds several entries; their conditions need not be identical. Identical values can stand only once.

Tested on: 636577-100-R-J1-PDC complex spheroid viability
Assay: Anticancer human tumor 636577-100-R-J1-PDC patient-derived endometrial adenocarcinoma cell line growth inhibition [GQUAD]
Conditions: for viability, T/C: stronger effect = lower value
From the text: DNA G-quadruplex Stabilizer Agents in Combinations in Complex Spheroids
A high-throughput screen of multi-cell type tumor spheroids was designed to identify active combinations of DNA G-quadruplex stabilizer agents and targeted small molecules. Complex spheroids include a stromal component modeled by human endothelial cells (HUVEC) and fibroblasts modeled by human mesenchymal stem cells (MSCs). The concentration ranges selected for each drug and investigational agent were based upon clinically achievable concentrations if the clinical Cmax of the agent was known.
Compounds. The drugs and investigational agents: pidnarulex (CX-5461; NSC782164), APTO-253 (NSC789042), BRACO-19 (NSC847499), peposertib (NSC802822), ceralasertib (NSC780249), elimusertib (NSC800525), camonsertib (NSC841442), AZD-1390 (NSC803789), olaparib (NSC753686), talazoparib (NSC767125), ART-558 (NSC835418), sotorasib (NSC818433), MRTX-1133 (NSC836407), SN-38 (NSC673596), topotecan (NSC609699), etoposide (NSC141540), doxorubicin (NSC123127), gemcitabine (NSC613327), 5-fluorouracil (NSC19893), paclitaxel (NSC125973), vemurafenib (NSC761431), panobinostat (NSC761190), R-306465 (JNJ-16241199; NSC773264), adavosertib (NSC754352), TP-3654 (NSC805149), carboplatin (NSC241240), KSQ-4279 (NSC840948), and staurosporine (NSC755774) were obtained from the National Cancer Institute (NCI) Developmental Therapeutics Program Chemical Repository (34). The FDA-approved anticancer drug set is available from the NCI Developmental Therapeutics Program. […] The stock solutions were prepared in dimethyl sulfoxide (DMSO, Sigma-Aldrich, St. Louis, MO, cat. D2650) at 800-fold the tested concentration and stored at -70 degrees C prior to their use. All drugs and investigational agents were tested over a range starting from a high concentration at or near the clinical Cmax and decreasing in half-log increments. If the clinical Cmax for an agent had not been determined, the highest concentration tested was 10 microM.
2.3 Cell Culture. All cells were maintained in an incubator at 37 degrees C and 5% CO2 with 95% humidity. The PDC lines were cultured according to standard operating procedures established by the NCI PDMR. All PDCs were thawed and cultured in Matrigel-coated flasks prepared with a working solution of 1X Ham's F-12 nutrient mix, without supplementation (Invitrogen, cat. 11765054), 100 U/mL penicillin-streptomycin (Invitrogen, cat. 15140122), and 2.5% Matrigel (Corning Inc., cat. 354248) for the first three passages. The 857933-349-R-J2-PDC line was cultured in 6C/Colon 1B media, which includes advanced DMEM/F-12 (Thermo Fisher Scientific, cat. 12634028), 10 mM HEPES (Thermo Fisher Scientific, cat. 15630080), 1X GlutaMAX supplement (Thermo Fisher Scientific, cat. 35050061), 0.1 mg/mL primocin (InvivoGen, cat. ant-pm-2), 10% defined fetal bovine serum, heat inactivated (HyClone Laboratories Inc., cat. SH30070.03HI), 50% L-WRN conditioned media (ATCC, cat. CRL-3276), 1.25 mM N-Acetyl-L-cysteine (Sigma-Aldrich, cat. A9165), 10 mM nicotinamide (Sigma-Aldrich, cat. N0636), 1X B-27 supplement (Thermo Fisher Scientific, cat. 17504044), 1X N-2 supplement (Thermo Fisher Scientific, cat. 17502048), 10 microM Y-27632 dihydrochloride (Tocris Bioscience, cat. 1254), and 50 ng/mL human EGF recombinant protein (Thermo Fisher Scientific, cat. PHG0311). The 485176-168-R4-J1-PDC line was cultured in Panc media, which includes all 6C/Colon 1B media components plus 100 ng/mL human FGF-10 (Thermo Fisher Scientific, cat. 100-26), 500 nM SB-431542 (Selleckchem, cat. S1067), and gastrin (Tocris, cat. 3006).
[…]

[1] = curve of first compound, second compound 0.0316 µM
[2] = curve of first compound, second compound 0.1 µM
[3] = curve of first compound, second compound 0.316 µM
[4] = curve of first compound, second compound 1 µM
[5] = curve of first compound, second compound 3.16 µM
[6] = curve of first compound, second compound 10 µM
[7] = second compound 0.0316 µM, first compound 0.0316 µM
[8] = second compound 0.0316 µM, first compound 0.316 µM
[9] = second compound 0.1 µM, first compound 0.0316 µM
[10] = second compound 0.1 µM, first compound 0.316 µM
[11] = second compound 0.316 µM, first compound 0.0316 µM
[12] = second compound 0.316 µM, first compound 0.316 µM
[13] = second compound 1 µM, first compound 0.0316 µM
[14] = second compound 1 µM, first compound 0.316 µM
[15] = second compound 3.16 µM, first compound 0.0316 µM
[16] = second compound 3.16 µM, first compound 0.316 µM
[17] = second compound 10 µM, first compound 0.0316 µM
[18] = second compound 10 µM, first compound 0.316 µM
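Further: viability read after seven days of drug exposure.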
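Wherever viability, T/C is given: luminescence signal used as a proxy for viable cells; 100% = DMSO vehicle control wells.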

`Cc1[nH]c2ccccc2c1CCNCc1ccc(/C=C/C(=O)NO)cc1` + Cc1[nH]c2ccc(F)cc2c1-c1nc2c3cccnc3c3ncccc3c2[nH]1 was tested, and the IC50 [1] was 0.00382 µM, the IC50 [2] was 0.00427 µM and the IC50 [3] was 0.00257 µM. For the same compound, the IC50 [4] was 0.00408 µM, the IC50 [5] was < 0.000999 µM and the IC50 [6] was < 0.000999 µM. The viability, T/C (second compound 0.0316 µM, first compound 0.000999 µM) was 85.4%, the viability, T/C (second compound 0.0316 µM, first compound 0.00316 µM) was 50.4% and the viability, T/C (second compound 0.0316 µM, first compound 0.00999 µM) was 37.9%. It also gave a viability, T/C [7] of 17.2%, a viability, T/C (second compound 0.0316 µM, first compound 0.0999 µM) of 8.47% and a viability, T/C [8] of 10.2%. For the same compound, the viability, T/C (second compound 0.1 µM, first compound 0.000999 µM) was 76.9%, the viability, T/C (second compound 0.1 µM, first compound 0.00316 µM) was 50.8% and the viability, T/C (second compound 0.1 µM, first compound 0.00999 µM) was 41.8%. It also gave a viability, T/C [9] of 14.9%, a viability, T/C (second compound 0.1 µM, first compound 0.0999 µM) of 7.94% and a viability, T/C [10] of 12.1%. The viability, T/C (second compound 0.316 µM, first compound 0.000999 µM) was 80.3%, the viability, T/C (second compound 0.316 µM, first compound 0.00316 µM) was 37.7% and the viability, T/C (second compound 0.316 µM, first compound 0.00999 µM) was 32.9%. The viability, T/C [11] was 16.5%, the viability, T/C (second compound 0.316 µM, first compound 0.0999 µM) was 7.47% and the viability, T/C [12] was 10.4%. It also gave a viability, T/C (second compound 1 µM, first compound 0.000999 µM) of 51.6%, a viability, T/C (second compound 1 µM, first compound 0.00316 µM) of 59.6% and a viability, T/C (second compound 1 µM, first compound 0.00999 µM) of 30.3%. For the same compound, the viability, T/C [13] was 15.5%, the viability, T/C (second compound 1 µM, first compound 0.0999 µM) was 9.36% and the viability, T/C [14] was 8.79%. For the same compound, the viability, T/C (second compound 3.16 µM, first compound 0.000999 µM) was 23.2%, the viability, T/C (second compound 3.16 µM, first compound 0.00316 µM) was 27.4% and the viability, T/C (second compound 3.16 µM, first compound 0.00999 µM) was 23.9%. For the same compound, the viability, T/C [15] was 17.2%, the viability, T/C (second compound 3.16 µM, first compound 0.0999 µM) was 9.73% and the viability, T/C [16] was 7.69%. For the same compound, the viability, T/C (second compound 10 µM, first compound 0.000999 µM) was 32.9%, the viability, T/C (second compound 10 µM, first compound 0.00316 µM) was 34% and the viability, T/C (second compound 10 µM, first compound 0.00999 µM) was 23.1%. For the same compound, the viability, T/C [17] was 13.5%, the viability, T/C (second compound 10 µM, first compound 0.0999 µM) was 9.1% and the viability, T/C [18] was 10.7%.
`O=c1[nH]cc(F)c(=O)[nH]1` + Cc1cnc(CNC(=O)c2c(=O)c3ccc(N4CCCN(C)CC4)nc3n3c2sc2ccccc23)cn1 was tested, and the IC50 [1] was < 0.0316 µM, the IC50 [2] was < 0.0316 µM and the IC50 [3] was < 0.0316 µM. The IC50 [4] was < 0.0316 µM, the IC50 [5] was < 0.0316 µM and the IC50 [6] was < 0.0316 µM. It also gave a viability, T/C [7] of 47.8%, a viability, T/C (second compound 0.0316 µM, first compound 0.1 µM) of 45.1% and a viability, T/C [8] of 49.7%. For the same compound, the viability, T/C (second compound 0.0316 µM, first compound 1 µM) was 39.9%, the viability, T/C (second compound 0.0316 µM, first compound 3.16 µM) was 36.7% and the viability, T/C (second compound 0.0316 µM, first compound 10 µM) was 21.3%. The viability, T/C [9] was 28.9%, the viability, T/C (second compound 0.1 µM, first compound 0.1 µM) was 26.9% and the viability, T/C [10] was 27.6%. The viability, T/C (second compound 0.1 µM, first compound 1 µM) was 25.9%, the viability, T/C (second compound 0.1 µM, first compound 3.16 µM) was 25.5% and the viability, T/C (second compound 0.1 µM, first compound 10 µM) was 18.4%. The viability, T/C [11] was 24.2%, the viability, T/C (second compound 0.316 µM, first compound 0.1 µM) was 23.3% and the viability, T/C [12] was 17.6%. The viability, T/C (second compound 0.316 µM, first compound 1 µM) was 21.9%, the viability, T/C (second compound 0.316 µM, first compound 3.16 µM) was 22.2% and the viability, T/C (second compound 0.316 µM, first compound 10 µM) was 16.6%. The viability, T/C [13] was 21.3%, the viability, T/C (second compound 1 µM, first compound 0.1 µM) was 21.1% and the viability, T/C [14] was 19.7%. The viability, T/C (second compound 1 µM, first compound 1 µM) was 23%, the viability, T/C (second compound 1 µM, first compound 3.16 µM) was 21.1% and the viability, T/C (second compound 1 µM, first compound 10 µM) was 20.1%. For the same compound, the viability, T/C [15] was 20%, the viability, T/C (second compound 3.16 µM, first compound 0.1 µM) was 19.5% and the viability, T/C [16] was 21.8%. It also gave a viability, T/C (second compound 3.16 µM, first compound 1 µM) of 24.1%, a viability, T/C (second compound 3.16 µM, first compound 3.16 µM) of 21% and a viability, T/C (second compound 3.16 µM, first compound 10 µM) of 22%. The viability, T/C [17] was 17.7%, the viability, T/C (second compound 10 µM, first compound 0.1 µM) was 17.9% and the viability, T/C [18] was 18%. It also gave a viability, T/C (second compound 10 µM, first compound 1 µM) of 18.7%, a viability, T/C (second compound 10 µM, first compound 3.16 µM) of 20.4% and a viability, T/C (second compound 10 µM, first compound 10 µM) of 20.1%.
With `CCCS(=O)(=O)Nc1ccc(F)c(C(=O)c2c[nH]c3ncc(-c4ccc(Cl)cc4)cc23)c1F` the viability, T/C (compound 0.0316 µM) was 98.3% and 98.1% and 104%, the viability, T/C (compound 0.1 µM) was 89.9% and 103% and 86.1% and the viability, T/C (compound 0.316 µM) was 109% and 84.8% and 76.3%. The viability, T/C (compound 1 µM) was 75% and 74.6% and 46.8%, the viability, T/C (compound 3.16 µM) was 71.8% and 76.7% and 53.5% and the viability, T/C (compound 10 µM) was 46.6% and 34.8% and 20.9%. For the same compound, the IC50 (curve of compound) was 8.65 µM and 6.14 µM and 1.7 µM.
